In US20190275010A1, “COMBINATION THERAPY COMPRISING A THIAZOLE AND A SECOSTEROID TO TREAT SKIN CONDITIONS” (Avexxin AS, priority 2016, published 2019):
“Also recorded” adds a separate entry of the source.

Tested on: HaCaT cells
Assay: Resazurin assay, HaCaT keratinocyte cell viability
Assay type: cell-based, human
Details: for effect on cell viability at 10 μM: single agent 10 μM, 24 hours (FIG. 1); for concentration at which the compound was found to reduce cell viability: single agent dose response, 24 hours treatment, resazurin (FIG. 1)
Method: The spontaneously immortalized, nontumorigenic skin keratinocyte cell line HaCaT was maintained in DMEM supplemented with 5% (v/v) FBS, 0.3 mg/ml glutamine and 0.1 mg/ml gentamicin at 37° C. with 5% CO2 in a humidified atmosphere. Subculture using trypsin-EDTA was performed every 3-4 days with split ratio of 1:3-1:4 to ensure actively proliferating cells.
Cells were seeded in 96 well plates in fully supplemented medium at a density of 3000 cells per well. Following 72 hour of cultivation, the cells were starved of serum in 0.25% FBS/DMEM overnight to halt proliferation, synchronize the cells and to increase cell sensitivity to treatment. Next day, the cells were treated with cPLA2α inhibitor Compound B, Compound A, vitamin D analogue Calcipotriol and corticosteroid hormone receptor agonist Betamethasone dipropionate for 24 hours. Resazurin was added next day according to the manufacturer's instruction (RnD Systems, UK) and left to incubate for […] in incubator at 37° C. with 5% CO2 in a humidified atmosphere before fluorescence was read at 544 nm excitation and 590 nm emission wavelength. The cells were observed under the microscope to evaluate possible morphology changes and signs of stress before addition of resazurin. The experiments were performed in series of 8 wells per treatment and repeated 3 times.

## C=C1/C(=C\C=C2/CCC[C@]3(C)[C@@H]([C@H](C)/C=C/[C@@H](O)C4CC4)CC[C@@H]23)C[C@@H](O)C[C@@H]1O [Calcipotriol]
  effect on cell viability at 10 μM: no signs of impairment in cell viability; also recorded: no toxicity
  concentration at which the compound was found to reduce cell viability: 15 µM

## CCCCCCCOc1ccc(OCC(=O)c2nc(C(=O)OC)cs2)cc1 [Compound A1]
  effect on cell viability at 10 μM: no toxicity
  concentration at which the compound was found to reduce cell viability: 20 µM
